# In patent US20250099478A1, “PLASMA KALLIKREIN INHIBITORS” (Merck Sharp & Dohme LLC, priority 2022, published 2025):
# Target: T1, Human plasma kallikrein (Homo sapiens, UniProt P03952)
# T1 construct: yields a heavy chain (371 amino acids) and a light chain (248 amino acids); purchased Enzyme Research Laboratories
# Test: Plasma Kallikrein Assay
# Type: biochemical
# Conditions: purified Human plasma kallikrein 0.5 nM, substrate Acetyl-K-P-R-AFC; read-out: PKal IC50
# Procedure: The effectiveness of a compound of the present invention as an inhibitor of plasma kallikrein can be determined using a relevant purified serine protease, and an appropriate synthetic substrate. The rate of hydrolysis of the chromogenic or fluorogenic substrate by the relevant serine protease was measured both in the absence and presence of compounds of the present invention. Assays were conducted at rt or at 37° C. […] A decrease in the rate of fluorescence change in the presence of inhibitor is indicative of enzyme inhibition. Such methods are known to one skilled in the art. The results of this assay are expressed as the half-maximal inhibitory concentrations (IC50), or the inhibitory constant, Ki.
# Plasma kallikrein determinations were made in 50 mM HEPES buffer at pH 7.4 containing 150 mM NaCl, 5 mM CaCl2), and 0.1% PEG 8000 (polyethylene glycol; Fisher Scientific). Determinations were made using purified Human plasma kallikrein at a final concentration of 0.5 nM (Enzyme Research Laboratories) and the synthetic substrate, Acetyl-K-P-R-AFC (Sigma #C6608) at a concentration of […].
# Times required to achieve equilibration between enzyme and inhibitor were determined in control experiments. […] IC50 was determined by inflection point from a four parameter logistic curve fit. Ki was calculated using the Cheng Prusoff equation, Ki=IC50/(1+([S]/Km)).
# T1 sequence (P03952 391-638 limits assumed): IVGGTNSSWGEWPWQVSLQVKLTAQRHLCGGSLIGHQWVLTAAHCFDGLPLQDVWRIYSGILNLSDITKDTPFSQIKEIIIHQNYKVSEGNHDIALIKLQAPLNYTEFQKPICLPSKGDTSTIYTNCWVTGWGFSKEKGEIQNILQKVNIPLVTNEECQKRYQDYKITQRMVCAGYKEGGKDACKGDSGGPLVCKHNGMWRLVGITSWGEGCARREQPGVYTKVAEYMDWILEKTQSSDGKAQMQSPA
# T1 sequence (P03952 20-390 partner limits assumed): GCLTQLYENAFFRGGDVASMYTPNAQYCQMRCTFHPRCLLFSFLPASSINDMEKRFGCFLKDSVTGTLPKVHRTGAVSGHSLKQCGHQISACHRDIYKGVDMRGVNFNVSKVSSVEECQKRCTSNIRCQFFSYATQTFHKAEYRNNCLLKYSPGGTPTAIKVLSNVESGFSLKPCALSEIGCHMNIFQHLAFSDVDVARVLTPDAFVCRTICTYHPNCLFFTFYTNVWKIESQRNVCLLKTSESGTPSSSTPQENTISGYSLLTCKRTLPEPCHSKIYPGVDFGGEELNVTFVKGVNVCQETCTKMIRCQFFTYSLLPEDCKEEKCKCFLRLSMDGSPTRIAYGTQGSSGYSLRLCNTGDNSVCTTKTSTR
row,SMILES,IC50 [µM]
1,"O=C1Nc2ccc(Cl)c(F)c2[C@@]2(CCCN(C(=O)c3nnc(Cc4ccc(F)c(Cl)c4)[nH]3)C2)O1 [Example 87, (R)-6-Chloro-1′-(5-(3-chloro-4-fluorobenzyl)-4H-1,2,4-triazole-3-carbonyl)-5-fluorospiro[benzo[d][1,3]oxazine-4,3′-piperidin]-2(1H)-one]",0.0497
2,"O=C1Nc2ccc(Cl)c(F)c2[C@@]2(CCCN(C(=O)c3nnc(Cc4cccc(OC(F)F)c4)[nH]3)C2)O1 [Example 90, (R)-6-Chloro-1′-(5-(3-(difluoromethoxy)benzyl)-4H-1,2,4-triazole-3-carbonyl)-5-fluorospiro[benzo[d][1,3]oxazine-4,3′-piperidin]-2(1H)-one]",0.0334
3,"Cn1cc(-c2ccc(Cc3nnc(C(=O)N4CCC[C@@]5(C4)OC(=O)Nc4ccc(Cl)c(F)c45)[nH]3)cc2)cn1 [Example 91, (R)-6-Chloro-5-fluoro-1′-(5-(4-(1-methyl-1H-pyrazol-4-yl)benzyl)-4H-1,2,4-triazole-3-carbonyl)spiro[benzo[d][1,3]oxazine-4,3′-piperidin]-2(1H)-one]",0.0252
4,"O=C1Nc2ccc(Cl)c(F)c2[C@@]2(CCCN(C(=O)c3nnc([C@](O)(c4ccccc4)C(F)(F)F)[nH]3)C2)O1 [Example 108, (R)-6-Chloro-5-fluoro-1′-(5-((R)-2,2,2-trifluoro-1-hydroxy-1-phenylethyl)-4H-1,2,4-triazole-3-carbonyl)spiro[benzo[d][1,3]oxazine-4,3′-piperidin]-2(1H)-one]",0.0201
5,"Cc1cccc(Cc2n[nH]c(C(=O)N3CCC[C@@]4(C3)OC(=O)Nc3ccc(Cl)c(F)c34)n2)c1 [Example 113, (R)-6-Chloro-1′-(3-(3-methylbenzyl)-1H-1,2,4-triazole-5-carbonyl)-5-fluorospiro[benzo[d][1,3]oxazine-4,3′-piperidin]-2(1H)-one]",0.0183
6,"O=C1Nc2ccc(Cl)c(F)c2[C@@]2(CCCN(C(=O)c3nnc(Cc4ccccc4F)[nH]3)C2)O1 [Example 114, (R)-6-Chloro-5-fluoro-1′-(5-(2-fluorobenzyl)-4H-1,2,4-triazole-3-carbonyl)spiro[benzo[d][1,3]oxazine-4,3′-piperidin]-2(1H)-one]",0.0331
7,"O=C1Nc2ccc(Cl)c(F)c2[C@@]2(CCCN(C(=O)c3nnc(Cc4cccc(C(F)(F)F)c4)[nH]3)C2)O1 [Example 115, (R)-6-Chloro-5-fluoro-1′-(5-(3-(trifluoromethyl)benzyl)-4H-1,2,4-triazole-3-carbonyl)spiro[benzo[d][1,3]oxazine-4,3′-piperidin]-2(1H)-one]",0.0239
8,"O=C1Nc2ccc(Cl)c(F)c2[C@@]2(CCCN(C(=O)c3nnc(Cc4cccc(CO)c4)[nH]3)C2)O1 [Example 116, (R)-6-Chloro-5-fluoro-1′-(5-(3-(hydroxymethyl)benzyl)-4H-1,2,4-triazole-3-carbonyl)spiro[benzo[d][1,3]oxazine-4,3′-piperidin]-2(1H)-one]",0.0399
9,"O=C1Nc2ccc(Cl)c(F)c2[C@@]2(CCCN(C(=O)c3nnc(Cc4ccc5c(c4)CCO5)[nH]3)C2)O1 [Example 117, (R)-6-Chloro-1′-(5-((2,3-dihydrobenzofuran-5-yl)methyl)-4H-1,2,4-triazole-3-carbonyl)-5-fluorospiro[benzo[d][1,3]oxazine-4,3′-piperidin]-2(1H)-one]",0.0348
10,"O=C1Nc2ccc(Cl)c(F)c2[C@@]2(CCCN(C(=O)c3nnc(Cc4cccc(Cl)c4)[nH]3)C2)O1 [Example 118, (R)-6-Chloro-1′-(5-(3-chlorobenzyl)-4H-1,2,4-triazole-3-carbonyl)-5-fluorospiro[benzo[d][1,3]oxazine-4,3′-piperidin]-2(1H)-one]",0.0292
11,"O=C1Nc2ccc(Cl)c(F)c2[C@@]2(CCCN(C(=O)c3nnc(Cc4ccc5c(c4)OCO5)[nH]3)C2)O1 [Example 119, (R)-1′-(5-(Benzo[d][1,3]dioxol-5-ylmethyl)-4H-1,2,4-triazole-3-carbonyl)-6-chloro-5-fluorospiro[benzo[d][1,3]oxazine-4,3′-piperidin]-2(1H)-one]",0.0471
12,"O=C1Nc2ccc(Cl)c(F)c2[C@@]2(CCCN(C(=O)c3nnc(Cc4cc(F)cc(F)c4)[nH]3)C2)O1 [Example 120, (R)-6-Chloro-1′-(5-(3,5-difluorobenzyl)-4H-1,2,4-triazole-3-carbonyl)-5-fluorospiro[benzo[d][1,3]oxazine-4,3′-piperidin]-2(1H)-one]",0.0211
13,"O=C1Nc2ccc(Cl)c(F)c2[C@@]2(CCCN(C(=O)c3nnc(Cc4cc(F)cc(Cl)c4)[nH]3)C2)O1 [Example 121, (R)-6-Chloro-1′-(5-(3-chloro-5-fluorobenzyl)-4H-1,2,4-triazole-3-carbonyl)-5-fluorospiro[benzo[d][1,3]oxazine-4,3′-piperidin]-2(1H)-one]",0.0354
14,"O=C1Nc2ccc(Cl)c(F)c2[C@@]2(CCCN(C(=O)c3nnc(Cc4cc(Cl)c5nc[nH]c5c4)[nH]3)C2)O1 [Example 122, (R)-6-Chloro-1′-(5-((4-chloro-1H-benzo[d]imidazol-6-yl)methyl)-4H-1,2,4-triazole-3-carbonyl)-5-fluorospiro[benzo[d][1,3]oxazine-4,3′-piperidin]-2(1H)-one]",0.0175
15,"Cc1cc(Cc2nnc(C(=O)N3CCC[C@@]4(C3)OC(=O)Nc3ccc(Cl)c(F)c34)[nH]2)cc2[nH]nnc12 [Example 123, (R)-6-Chloro-5-fluoro-1′-(5-((4-methyl-1H-benzo[d][1,2,3]triazol-6-yl)methyl)-4H-1,2,4-triazole-3-carbonyl)spiro[benzo[d][1,3]oxazine-4,3′-piperidin]-2(1H)-one]",0.0191

# Further lines, results first:
row,IC50 [µM],SMILES
1,0.0203,"O=C1Nc2ccc(Cl)c(F)c2[C@@]2(CCCN(C(=O)c3nnc(Cc4ccc(CO)c(Cl)c4)[nH]3)C2)O1 [Example 125, (R)-6-Chloro-1′-(5-(3-chloro-4-(hydroxymethyl)benzyl)-4H-1,2,4-triazole-3-carbonyl)-5-fluorospiro[benzo[d][1,3]oxazine-4,3′-piperidin]-2(1H)-one]"
2,0.0331,"Cc1ccc(Cc2nnc(C(=O)N3CCC[C@@]4(C3)OC(=O)Nc3ccc(Cl)c(F)c34)[nH]2)cc1C [Example 126, (R)-6-Chloro-1′-(5-(3,4-dimethylbenzyl)-4H-1,2,4-triazole-3-carbonyl)-5-fluorospiro[benzo[d][1,3]oxazine-4,3′-piperidin]-2(1H)-one]"
3,0.0399,"O=C1Nc2ccc(Cl)c(F)c2[C@@]2(CCCN(C(=O)c3nc(C(O)c4ccc(F)cc4)n[nH]3)C2)O1 (stereo partly drawn) [Example 127, (4R)-6-Chloro-5-fluoro-1′-(3-((4-fluorophenyl)(hydroxy)methyl)-1H-1,2,4-triazole-5-carbonyl)spiro[benzo[d][1,3]oxazine-4,3′-piperidin]-2(1H)-one]"
4,0.0061,O=C1Nc2ccc(Cl)c(F)c2[C@]2(CCN(C(=O)c3cnn(Cc4ccc(Cn5ccccc5=O)cc4)c3)C2)O1 [Example 132]
5,0.0151,"O=C1Nc2ccc(Cl)c(F)c2[C@]2(CCN(C(=O)c3cnn(Cc4ccc(Cn5ccccc5=O)cn4)c3)C2)O1 [Example 133, (S)-6-Chloro-5-fluoro-1′-(1-((5-((2-oxopyridin-1(2H)-yl)methyl)pyridin-2-yl)methyl)-1H-pyrazole-4-carbonyl)spiro[benzo[d][1,3]oxazine-4,3′-pyrrolidin]-2(1H)-one]"
6,0.0208,"Cc1cnn(Cc2ccc(Cn3cc(C(=O)N4CC[C@]5(C4)OC(=O)Nc4ccc(Cl)c(F)c45)cn3)cc2)c1 [Example 134, (S)-6-Chloro-5-fluoro-1′-(1-(4-((4-methyl-1H-pyrazol-1-yl)methyl)benzyl)-1H-pyrazole-4-carbonyl)spiro[benzo[d][1,3]oxazine-4,3′-pyrrolidin]-2(1H)-one]"
7,0.0075,"O=C1Nc2ccc(Cl)c(F)c2[C@]2(CCN(C(=O)c3cn(Cc4ccc(Cn5ccccc5=O)cc4)nc3C(F)(F)F)C2)O1 [Example 135, (S)-6-Chloro-5-fluoro-1′-(1-(4-((2-oxopyridin-1(2H)-yl)methyl)benzyl)-3-(trifluoromethyl)-1H-pyrazole-4-carbonyl)spiro[benzo[d][1,3]oxazine-4,3′-pyrrolidin]-2(1H)-one]"
8,0.0056,"O=C1Nc2ccc(Cl)c(F)c2[C@]2(CCN(C(=O)C3(F)CCN(Cc4ccc(Cn5ccccc5=O)cc4)CC3)C2)O1 [Example 138, (4S)-6-Chloro-5-fluoro-1′-(4-fluoro-1-(4-((2-oxopyridin-1(2H)-yl)methyl)benzyl)piperidine-4-carbonyl)spiro[benzo[d][1,3]oxazine-4,3′-pyrrolidin]-2(1H)-one]"
